Results reported in patent publication US8946407B2, “Fructosylated mangiferin and preparation method therefor and use thereof” (priority 2011, dated 2015).

Columns and labels:
[1] = tested on: Human chronic myelogenous leukemia cell strain K562; assay: K562 cell toxicity test (MTT method); assay type: cell-based; conditions: for Average suppression rate (%) / OD value: 48 h; for Average suppression rate (%): K562; for OD value: K562, A490 MTT
Description: Human chronic myelogenous leukemia cell strain K562, purchased from the cell bank of Shanghai Cell Research Institute of Chinese Academy of Sciences; mangiferin, purchased from Nanjing Zelang Medical Science and Technology Co., Ltd.; monofructosyl-β (2,6)-mangiferin is prepared with the method described in this invention, with purity over 99% as determined by high performance liquid chromatography. Drug liquid and its storage: weigh 8.44 mg mangiferin powder and dissolve it in 2 mL DMSO to prepare it into 10 mmol/L mangiferin; weigh 11.68 mg monofructosyl-β (2,6)-mangiferin powder and dissolve it in 2 mL DMSO to prepare it into 10 mmol/L monofructosyl-β (2,6)-mangiferin; they are filtered with a 0.22 μm filter, packed in 1000 μL/doff and stored at −20° C., meanwhile, high concentration DMSO is filtered with a 0.22 μm filter for use as control. The K-562 cells are cultured in RPMI-1640 complete culture medium containing inactivated calf serum at volume fraction of 10%, 100 U penicillin and streptomycin, in an incubating box at 37° C., with 5% CO2 and at saturated humidity. Take K-562 cells in logarithmic growing phase, adjust its concentration to 1×10^5/mL, and inoculate them in a 96-hole culture plate, each hole with 90 μL of suspended cell liquid, the experimental group is treated with mangiferin and monofructosyl-β (2,6)-mangiferin at different end concentration (1, 5, 10, 20, 50, 100, 150 and 200 μmol/L), with 10 μL in each hole, the DMSO solvent control group is added with 20 μL PBS containing the corresponding drug solvent, and the blank group is added with 20 μL PBS. For each drug concentration, 6 repeating holes are provided. The culture plate is put back into the cell culture box, add 20 μL MTT (5 mg/mL) solution after 48 h, and after further incubation of 4 h in the culture box, add triple liquid 100 μL into each hole, put it still overnight to allow full dissolution of crystal. Vibrate it with oscillator for 20 min and determine the light absorption at 490 nm with a fully automatic ELISA instrument, and calculate the average suppression rate, the suppression rate (%)=(control group A490−test group A490)/control group A490), the experiment was repeated three times. Relevant analysis and Student t tests in Microsoft Excel 2003 were used, and data are presented in.

dissolvability at 25° C. = assay type: physicochemical
Description: As determined, at 25° C., the dissolvability of monofructosyl-β-(2,6)-mangiferin is 350 g/L, and that of bifructosyl-β-(2,6)-mangiferin is 1200 g/L, respectively 3.5×103 times and 1.2×104 times that of mangiferin (0.1 g/L) under the same condition.

| Compound | Average suppression rate (%) ([1]; 1 μmol/L) | OD value ([1]; 1 μmol/L) | Average suppression rate (%) ([1]; 5 μmol/L) | OD value ([1]; 5 μmol/L) | Average suppression rate (%) ([1]; 10 μmol/L) | OD value ([1]; 10 μmol/L) | Average suppression rate (%) ([1]; 20 μmol/L) | OD value ([1]; 20 μmol/L) | Average suppression rate (%) ([1]; 50 μmol/L) | OD value ([1]; 50 μmol/L) | Average suppression rate (%) ([1]; 100 μmol/L) | OD value ([1]; 100 μmol/L) | Average suppression rate (%) ([1]; 150 μmol/L) | OD value ([1]; 150 μmol/L) | Average suppression rate (%) ([1]; 200 μmol/L) | OD value ([1]; 200 μmol/L) | dissolvability (dissolvability at 25° C.) | effect on K562 cell proliferation (in words) ([1]; after acting for 48 h, MTT method) |
| --- | --- | --- | --- | --- | --- | --- | --- | --- | --- | --- | --- | --- | --- | --- | --- | --- | --- | --- |
| O=c1c2cc(O)c(O)cc2oc2cc(O)c([C@@H]3O[C@H](CO)[C@@H](O)[C@H](O)[C@H]3O)c(O)c12 [mangiferin] | 7.74% | 0.952 ± 0.034 | 8.39% | 0.945 ± 0.041 | 10.75% | 0.921 ± 0.036 | 3.52% | 0.995 ± 0.086 | −3.9% | 1.096 ± 0.143 | −16.08% | 1.198 ± 0.048 | −10.61% | 1.141 ± 0.049 | −14.56% | 1.182 ± 0.175 | – | – |
| bifructosyl-β-(2,6)-mangiferin | – | – | – | – | – | – | – | – | – | – | – | – | – | – | – | – | 1200 g/L | – |
| monofructosyl-β-(2,6)-mangiferin | 4.53% | 0.982 ± 0.039 | 8.79% | 0.938 ± 0.102 | 8.19% | 0.944 ± 0.053 | 8.56% | 0.941 ± 0.040 | 8.87% | 0.938 ± 0.041 | 23.19% | 0.790 ± 0.098 | 36.53% | 0.653 ± 0.026 | 41.48% | 0.602 ± 0.021 | 350 g/L | can markedly suppress the proliferation |
